Assay results taken from patent US20240100006A1, “COMPOSITIONS AND METHODS USING AT LEAST ONE GLYCINE OR DERIVATIVE THEREOF AND AT LEAST ONE LARGE NEUTRAL AMINO ACID AND/OR CATIONIC AMINO ACID OR PRECURSOR THEREOF” (SOCIETE DES PRODUITS NESTLE S.A., priority 2020, published 2024).
“Also recorded” adds a separate entry of the source.

System: isolated mitochondria from skeletal muscle of zebrafish
Assay: Acute oxidative stress and mitochondrial high-resolution respirometry
Format: in vivo
Experimental: Following the stress, fish were divided into controls and treatment groups. […] Fish exposed to the glycine and glucose treatment were incubated in water containing the compound of interest for 2 h at 28° C. at the following doses: 50, 200, 450 μM (Sigma-Aldrich) for glycine; 500 μM and 5 mM (Sigma-Aldrich) for glucose; 450 μM for glycine, arginine and methionine (Sigma-Aldrich). […] After BCA quantification of protein concentration, 150 μg of crude extract were used for high-resolution respirometry quantification. […] Up to three 02k instruments ([…]) were used in parallel. Experiments were performed at 28° C. in modified MiR05 (110 mM sucrose, 0.5 mM EGTA, 3 mM MgCl2, 20 mM taurine, 10 mM KH2PO4, 20 mM HEPES and 0.1% BSA essentially fatty acid free). Respiration of isolated mitochondria was determined using substrate-uncoupler-inhibitor titration (SUIT) protocols (Pesta and […], Methods Mol Biol. 2012; 810:25-58) with modifications. […] CI respiration was calculated as the difference between total respiration (CI+CII) and the addition of CI inhibitor rotenone (0.5 μM); CII respiration was calculated as the difference between inhibited CI respiration and the addition of CII inhibitor malonic acid (5 mM). Total respiration (CI+CII, Tot resp) was assessed as the difference of the respiration in presence of all substrates and the total inhibition of CI and CII.

SMILES	mitochondrial respiration (O2 consumption; Complex I dependent respiration) after acute oxidative stress (adult AB zebrafish, 3 μM menadione 2 h at 28° C., then compound in water 2 h, glycine 50, 200, 450 μM, glucose 500 μM and 5 mM, FIG. 3, n=3 per condition)	Complex I dependent respiration (acute oxidative stress inducer, 3 μM in water for 2 h at 28° C., FIG. 3)
NCC(=O)O [glycine]	restores respiratory levels; also recorded: able to restore mitochondrial respiration	–
CC1=CC(=O)c2ccccc2C1=O [menadione, Menadione, reference compound]	–	decreasing Complex I dependent respiration
